The source of these data is patent publication US20080293771A1, “AZACYCLYLBENZAMIDE DERIVATIVES AS HISTAMINE-3 ANTAGONISTS” (Wyeth, priority 2007, published 2008).

Structures can show the parent of a compound that is named as a salt.

Turning to `Cc1nc2ccccc2n1-c1ccc(C(=O)N(C)C2CCN(C3CCC3)CC2)cc1` (as salt: hydrochloride) [Example 34, N-(1-cyclobutylpiperidin-4-yl)-N-methyl-4-(2-methyl-1H-benzimidazol-1-yl)benzamide], the melting point was 280 °C (dec.).

`COc1cc(C(=O)N(C)C2CCN(C3CCCC3)CC2)ccc1-n1c(C)nc2ccccc21` (as salt: hydrochloride) [Example 126, N-(1-cyclopentylpiperidin-4-yl)-3-methoxy-N-methyl-4-(2-methyl-1H-benzimidazol-1-yl)benzamide] registered a melting point of 244 to 246 °C.

Consider `Cc1cc(C(=O)N(C)C2CCN(C3CCCC3)CC2)ccc1-n1c(C)nc2ccccc21` (as salt: hydrochloride) [Example 124, N-(1-cyclopentylpiperidin-4-yl)-N,3-dimethyl-4-(2-methyl-1H-benzimidazol-1-yl)benzamide], for which the melting point is 240 °C (dec.).

Regarding `Cc1nc2ccccc2n1-c1ccc(C(=O)N(C)C2CCN(C3CCCC3)CC2)c(Cl)c1` (as salt: hydrochloride) [Example 122, 2-chloro-N-(1-cyclopentylpiperidin-4-yl)-N-methyl-4-(2-methyl-1H-benzimidazol-1-yl)benzamide], the melting point was 240 °C (dec.).

For `Cc1nc2ccccc2n1-c1ccc(C(=O)N(C)[C@H]2CCN(CC3CC3)C2)cc1` (as salt: hydrochloride), the melting point lay in the range of 179 to 180 °C.

On to `Cc1nc2ccccc2n1-c1ccc(C(=O)N(C)[C@H]2CCN(C(C)C)C2)cc1` (as salt: hydrochloride), for which the melting point fell in the range of 190 to 192 °C.

In the case of `Cc1nc2ccccc2n1-c1ccc(C(=O)N(C)[C@H]2CCN(C3CCCCC3)C2)cc1` (as salt: hydrochloride), the melting point lay within 170 to 172 °C.

As for `Cc1nc2ccccc2n1-c1ccc(C(=O)N(C)[C@@H]2CCN(C(C)C)C2)cc1` (as salt: hydrochloride), the melting point lay within 181 to 183 °C.

Turning to `CN(C(=O)c1ccc(Cn2ncc3ccccc32)cc1)[C@@H]1CCN(C2CCCC2)C1` (as salt: hydrochloride) [Example 78, N-[(3R)-1-cyclopentylpyrrolidin-3-yl]-4-(1H-indazol-1-ylmethyl)-N-methylbenzamide], the melting point is 98 to 99 °C.

For the compound `Cc1cc(C(=O)N(C)C2CCN(C(C)C)CC2)ccc1-n1c(C)nc2ccccc21` (as salt: hydrochloride) [Example 123, N,3-dimethyl-4-(2-methyl-1H-benzimidazol-1-yl)-N-[1-(1-methylethyl)piperidin-4-yl]benzamide], the melting point was 250 °C (dec.).

Consider `Cc1nc2ccccc2n1-c1ccc(C(=O)N(C)[C@@H]2CCN(C3CCCC3)C2)cc1` (as salt: hydrochloride), for which the melting point is 186 to 187 °C.

The compound `CC(C)N1CC[C@@H](N(C)C(=O)c2ccc(Cn3ncc4ccccc43)cc2)C1` (as salt: hydrochloride) [Example 76, 4-(1H-indazol-1-ylmethyl)-N-[(3R)-1-isopropylpyrrolidin-3-yl]-N-methylbenzamide] had a melting point of 156 to 158 °C.

On to `Cc1nc2ccccc2n1-c1ccc(C(=O)N(C)[C@@H]2CCN(CC3CCCCC3)C2)cc1` (as salt: hydrochloride), for which the melting point was in the range of 184 to 185 °C.

`Cc1nc2ccccc2n1-c1ccc(C(=O)N(C)[C@@H]2CCN(C3CC4CCC3C4)C2)cc1` (some centres unmarked) (as salt: hydrochloride) gave a melting point of 205 to 207 °C.

`Cc1nc2ccccc2n1Cc1ccc(C(=O)N(C)[C@@H]2CCNC2)cc1` (as salt: hydrochloride) [Example 35, N-Methyl-4-[(2-methylbenzimidazol-1-yl)methyl]-N—(R)-pyrrolidin-3-yl-benzamide Hydrochloride]: the melting point is 126 to 128 °C.

With `Cc1nc2ccccc2n1-c1ccc(C(=O)N(C)[C@H]2CCN(C3CC[C@@H](C)C3)C2)cc1` (some centres unmarked) (as salt: hydrochloride), the melting point fell in the range of 175 to 177 °C.

As to `Cc1nc2ccccc2n1Cc1ccc(C(=O)N(C)C2CCN(C3CCCC3)CC2)cc1` (as salt: hydrochloride) [Example 48, N-(1-cyclopentylpiperidin-4-yl)-N-methyl-4-[(2-methyl-1H-benzimidazol-1-yl)methyl]benzamide], the melting point is 280 °C (dec.).

Compound `CC(C)N1CC[C@@H](N(C)C(=O)c2ccc(-n3cc4ccccc4n3)cc2)C1` (as salt: hydrochloride) [Example 61, 4-(2H-indazol-2-yl)-N-[(3R)-1-isopropylpyrrolidin-3-yl]-N-methylbenzamide] gave a melting point of 227 to 228 °C.

With `CN(C(=O)c1ccc(Cn2ncc3ccccc32)cc1)[C@@H]1CCN(C2CCC2)C1` (as salt: hydrochloride) [Example 77, N-[(3R)-1-cyclobutylpyrrolidin-3-yl]-4-(1H-indazol-1-ylmethyl)-N-methylbenzamide], the melting point lay in the range of 105 to 106 °C.

The compound `CCN(C(=O)c1ccc(-n2c(C)nc3ccccc32)cc1)[C@@H]1CCNC1` (as salt: hydrochloride) [Example 138, (R)—N-ethyl-4-(2-methyl-1H-benzo[d]imidazol-1-yl)-N-(pyrrolidin-3-yl)benzamide hydrochloride] gave a melting point of 174 to 176 °C.

In turn, `Cc1nc2ccccc2n1-c1ccc(C(=O)N(C)[C@@H]2CCN(CC(C)C)C2)cc1` (as salt: hydrochloride) returned a melting point of 189 to 190 °C.

Regarding `COc1cc(C(=O)N(C)C2CCN(C(C)C)CC2)ccc1-n1c(C)nc2ccccc21` (as salt: hydrochloride) [Example 125, 3-methoxy-N-methyl-4-(2-methyl-1H-benzimidazol-1-yl)-N-[1-(1-methylethyl)piperidin-4-yl]benzamide], the melting point was 250 to 252 °C.

`CC(C)N1CCC(N(C)C(=O)c2ccc(Cn3cccn3)cc2)CC1` (as salt: hydrochloride) [Example 91, N-methyl-N-[1-(1-methylethyl)piperidin-4-yl]-4-(1H-pyrazol-1-ylmethyl)benzamide] returned a melting point of 213 to 215 °C.

The compound `Cc1nc2ccccc2n1Cc1ccc(C(=O)N(C)C2CCN(C(C)C)CC2)cc1` (as salt: hydrochloride) [Example 46, N-(1-isopropylpiperidin-4-yl)-N-methyl-4-[(2-methyl-1H-benzimidazol-1-yl)methyl]benzamide] had a melting point of 200 to 202 °C.

`Cc1nc2ccccc2n1-c1ccc(C(=O)N(C)[C@H]2CCN(C3CCC3)C2)cc1` (as salt: hydrochloride) had a melting point of 184 to 185 °C.

For the compound `Cc1nc2ccccc2n1-c1ccc(C(=O)N(C)C2CCN(C(C)C)CC2)cc1F` (as salt: hydrochloride) [Example 119, 3-fluoro-N-methyl-4-(2-methyl-1H-benzimidazol-1-yl)-N-[1-(1-methylethyl)piperidin-4-yl]benzamide], the melting point fell in the range of 279 to 281 °C.

The compound `Cc1nc2ccccc2n1-c1ccc(C(=O)N(C)[C@H]2CCN(C3CCCCC3C)C2)cc1` (some centres unmarked) (as salt: hydrochloride) came in with a melting point of 195 to 196 °C.

`CN(C(=O)c1ccc(Cn2ncc3ccccc32)cc1)C1CCN(C2CCCC2)CC1` (as salt: hydrochloride) [Example 81, N-(1-cyclopentylpiperidin-4-yl)-4-(1H-indazol-1-ylmethyl)-N-methylbenzamide] came in with a melting point of 265 to 267 °C.

The compound `CN(C(=O)c1ccc(-n2ncc3ccccc32)cc1)[C@@H]1CCN(C2CCC2)C1` (as salt: hydrochloride) [Example 65, N-[(3R)-1-cyclobutylpyrrolidin-3-yl]-4-(1H-indazol-1-yl)-N-methylbenzamide] returned a melting point of 163 to 165 °C.

Take `Cc1nc2ccccc2n1-c1ccc(C(=O)N(C)[C@H]2CCN(C3CCC[C@@H](C)C3)C2)cc1` (some centres unmarked) (as salt: hydrochloride): the melting point was 187 to 189 °C.

As for `CC(C)N1CCC(N(C)C(=O)c2ccc(-n3ncc4ccccc43)cc2)CC1` (as salt: hydrochloride) [Example 72, 4-(1H-indazol-1-yl)-N-(1-isopropylpiperidin-4-yl)-N-methylbenzamide], the melting point lay within 151 to 162 °C.

With `COc1cc(-n2c(C)nc3ccccc32)ccc1C(=O)N(C)C1CCN(C(C)C)CC1` (as salt: hydrochloride) [Example 127, N-(1-isopropylpiperidin-4-yl)-2-methoxy-N-methyl-4-(2-methyl-1H-benzo[d]imidazol-1-yl)benzamide], the melting point fell in the range of 215 to 217 °C.

As for `Cc1nc2ccccc2n1Cc1ccc(C(=O)N(C)C2CCN(C3CCC3)CC2)cc1` (as salt: hydrochloride) [Example 47, N-(1-cyclobutylpiperidin-4-yl)-N-methyl-4-[(2-methyl-1H-benzimidazol-1-yl)methyl]benzamide], the melting point is 280 °C (dec.).

`CN(C(=O)c1ccc(Cn2cccn2)cc1)C1CCN(C2CCC2)CC1` (as salt: hydrochloride) [Example 92, N-(1-cyclobutylpiperidin-4-yl)-N-methyl-4-(1H-pyrazol-1-ylmethyl)benzamide] yielded a melting point of 235 to 237 °C.

As to `Cc1nc2ccccc2n1-c1ccc(C(=O)N(C)[C@@H]2CCN(C3CCC3)C2)cc1` (as salt: hydrochloride), the melting point was in the range of 175 to 176 °C.

In turn, `COc1cc(-n2c(C)nc3ccccc32)ccc1C(=O)N(C)C1CCN(C2CCCC2)CC1` (as salt: hydrochloride) [Example 128, N-(1-cyclopentylpiperidin-4-yl)-2-methoxy-N-methyl-4-(2-methyl-1H-benzo[d]imidazol-1-yl)benzamide] showed a melting point of 210 to 212 °C.

Consider `CN(C(=O)c1ccc(-n2cc3ccccc3n2)cc1)[C@@H]1CCN(C2CCC2)C1` (as salt: hydrochloride) [Example 62, N-[(3R)-1-cyclobutylpyrrolidin-3-yl]-4-(2H-indazol-2-yl)-N-methylbenzamide], for which the melting point lay within 163 to 165 °C.

As to `CN(C(=O)c1ccc(-n2ncc3ccccc32)cc1)C1CCN(C2CCCC2)CC1` (as salt: hydrochloride) [Example 74, N-(1-cyclopentylpiperidin-4-yl)-4-(1H-indazol-1-yl)-N-methylbenzamide], the melting point is 240 °C (dec.).

A word on the melting point: it is the temperature of the solid-liquid transition.
